According to ChEMBL document CHEMBL1909046, “DrugMatrix in vitro pharmacology data”:
pIC50, pKi: −log10 of the molar value.

Columns and labels:
Calcitonin receptor = molecular target: T1, Calcitonin receptor (Homo sapiens, UniProt P30988); assay type: cell membranes, Membrane; settings: t47d; note: in other assays of this panel Not Active means under 50% inhibition at 10 µM
T1 sequence (P30988 whole entry): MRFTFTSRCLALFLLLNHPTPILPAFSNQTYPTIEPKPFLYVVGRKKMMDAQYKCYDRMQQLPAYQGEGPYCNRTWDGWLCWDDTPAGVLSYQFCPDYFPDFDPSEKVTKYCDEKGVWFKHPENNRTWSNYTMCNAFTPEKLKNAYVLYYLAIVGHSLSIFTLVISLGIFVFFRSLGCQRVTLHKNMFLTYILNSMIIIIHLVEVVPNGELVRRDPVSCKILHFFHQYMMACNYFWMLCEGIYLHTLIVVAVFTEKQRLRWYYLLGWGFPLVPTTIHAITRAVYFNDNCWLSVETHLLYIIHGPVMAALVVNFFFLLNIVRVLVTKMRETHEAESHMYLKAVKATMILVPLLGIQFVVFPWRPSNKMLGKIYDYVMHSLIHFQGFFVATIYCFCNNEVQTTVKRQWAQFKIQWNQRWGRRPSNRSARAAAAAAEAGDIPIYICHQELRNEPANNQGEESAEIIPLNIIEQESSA

[1] = DRUGMATRIX: Tumor Necrosis Factor (TNF), Non-Selective radioligand binding (ligand: [125I] TNF-alpha); assay type: cell membranes, Membrane; settings: u-937; Not Active = under 50% inhibition at 10 µM
[2] = molecular target: Platelet-activating factor receptor (Homo sapiens, UniProt P25105); assay type: tissue-based; note: in other assays of this panel Not Active means under 50% inhibition at 10 µM
Sequence of Platelet-activating factor receptor (P25105 whole entry): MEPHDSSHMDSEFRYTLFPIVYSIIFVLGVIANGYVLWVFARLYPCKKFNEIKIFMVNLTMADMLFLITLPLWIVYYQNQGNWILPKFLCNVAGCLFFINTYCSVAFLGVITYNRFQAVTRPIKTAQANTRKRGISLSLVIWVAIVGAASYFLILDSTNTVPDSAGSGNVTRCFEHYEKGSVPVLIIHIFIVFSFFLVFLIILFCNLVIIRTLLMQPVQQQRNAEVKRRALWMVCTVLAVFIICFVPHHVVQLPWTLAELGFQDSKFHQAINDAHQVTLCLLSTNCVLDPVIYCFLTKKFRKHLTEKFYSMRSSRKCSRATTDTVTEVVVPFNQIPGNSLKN

D(3) dopamine receptor = D(3) dopamine receptor (Homo sapiens, UniProt P35462); assay: DRUGMATRIX: Dopamine D3 radioligand binding (ligand: [3H] Spiperone); assay type: cell membranes, CHO, Membrane; settings: cho
Sequence of D(3) dopamine receptor (P35462 whole entry): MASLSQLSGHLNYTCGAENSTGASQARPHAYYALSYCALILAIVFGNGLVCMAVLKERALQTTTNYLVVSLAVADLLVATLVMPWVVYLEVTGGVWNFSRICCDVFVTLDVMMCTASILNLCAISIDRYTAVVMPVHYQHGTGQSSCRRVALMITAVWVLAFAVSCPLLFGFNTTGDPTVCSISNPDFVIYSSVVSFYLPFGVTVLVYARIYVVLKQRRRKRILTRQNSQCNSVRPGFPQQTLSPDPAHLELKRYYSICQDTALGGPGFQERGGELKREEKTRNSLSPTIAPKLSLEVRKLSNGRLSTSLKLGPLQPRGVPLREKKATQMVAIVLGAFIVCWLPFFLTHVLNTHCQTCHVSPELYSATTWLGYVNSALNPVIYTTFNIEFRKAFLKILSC

[3] = molecular target: 5-hydroxytryptamine receptor 2B (Homo sapiens, UniProt P41595); assay type: cell membranes, CHO-K1, Membrane; settings: for pIC50: read-out: IC50; for pKi: read-out: Ki; for all read-outs here: in other assays of this panel Not Active means under 50% inhibition at 10 µM
Sequence of 5-hydroxytryptamine receptor 2B (P41595 whole entry): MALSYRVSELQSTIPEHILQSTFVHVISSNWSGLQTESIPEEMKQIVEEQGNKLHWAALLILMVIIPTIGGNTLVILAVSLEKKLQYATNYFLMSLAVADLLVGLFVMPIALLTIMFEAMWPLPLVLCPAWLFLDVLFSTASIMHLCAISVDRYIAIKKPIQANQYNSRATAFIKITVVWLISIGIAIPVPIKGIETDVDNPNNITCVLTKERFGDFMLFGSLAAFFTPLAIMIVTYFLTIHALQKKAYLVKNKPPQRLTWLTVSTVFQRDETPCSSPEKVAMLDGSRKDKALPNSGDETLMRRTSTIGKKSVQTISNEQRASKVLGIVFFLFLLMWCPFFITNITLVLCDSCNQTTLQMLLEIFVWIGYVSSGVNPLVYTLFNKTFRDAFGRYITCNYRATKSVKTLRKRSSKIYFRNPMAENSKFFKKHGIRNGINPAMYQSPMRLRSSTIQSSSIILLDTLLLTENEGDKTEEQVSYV

[4] = molecular target: Kappa-type opioid receptor (Homo sapiens, UniProt P41145); assay: DRUGMATRIX: Opiate kappa (OP2, KOP) radioligand binding (ligand: [3H] Diprenorphine); assay type: cell membranes, HEK293, Membrane; settings: hek293; Not Active = under 50% inhibition at 10 µM
Sequence of Kappa-type opioid receptor (P41145 whole entry): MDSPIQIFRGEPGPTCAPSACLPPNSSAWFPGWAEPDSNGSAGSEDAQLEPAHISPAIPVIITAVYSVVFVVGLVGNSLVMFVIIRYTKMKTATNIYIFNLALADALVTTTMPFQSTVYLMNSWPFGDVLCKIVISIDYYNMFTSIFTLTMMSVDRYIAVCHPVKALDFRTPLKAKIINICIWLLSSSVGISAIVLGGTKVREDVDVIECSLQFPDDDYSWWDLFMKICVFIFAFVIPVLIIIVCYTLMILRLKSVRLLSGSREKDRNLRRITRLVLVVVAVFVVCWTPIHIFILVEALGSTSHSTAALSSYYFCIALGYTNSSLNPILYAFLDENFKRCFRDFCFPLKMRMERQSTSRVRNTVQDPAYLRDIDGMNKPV

Compound: CADMIUM DICHLORIDE
- IC50 (Calcitonin receptor): Not Active
- Ki (Calcitonin receptor): Not Active
- IC50 [1]: Not Active
- Ki [1]: Not Active
- IC50 [2]: Not Active
- Ki [2]: Not Active
- IC50 (D(3) dopamine receptor): Not Active
- Ki (D(3) dopamine receptor): Not Active
- IC50 ([3]; cho-k1): Not Active
- Ki ([3]; cho-k1): Not Active

Compound: CCCN(CCC)C(=O)C(CCC(=O)O)NC(=O)c1ccccc1 (stereo not given) [PROGLUMIDE]
- IC50 (Calcitonin receptor): Not Active
- IC50 [1]: Not Active
- Ki [1]: Not Active
- IC50 [2]: Not Active
- IC50 (D(3) dopamine receptor): Not Active
- IC50 ([3]; cho-k1): Not Active
- IC50 [4]: Not Active

Compound: O=C(N[C@H](CO)[C@H](O)c1ccc([N+](=O)[O-])cc1)C(Cl)Cl [CHLORAMPHENICOL]
- IC50 (Calcitonin receptor): Not Active
- IC50 [1]: Not Active
- Ki [1]: Not Active
- IC50 [2]: Not Active
- IC50 (D(3) dopamine receptor): Not Active
- IC50 ([3]; cho-k1): Not Active
- IC50 [4]: Not Active

Compound: CCCCOc1ccc(OCCCN2CCOCC2)cc1 [PRAMOXINE]
- IC50 (Calcitonin receptor): Not Active
- IC50 [1]: Not Active
- Ki [1]: Not Active
- IC50 [2]: Not Active
- IC50 (D(3) dopamine receptor): Not Active
- IC50 ([3]; cho-k1): Not Active
- IC50 [4]: Not Active

Compound: CC(C)(C(=O)c1cccnc1)c1cccnc1 [METYRAPONE]
- IC50 (Calcitonin receptor): Not Active
- IC50 [1]: Not Active
- Ki [1]: Not Active
- IC50 [2]: Not Active
- IC50 (D(3) dopamine receptor): Not Active
- IC50 ([3]; cho-k1): Not Active
- IC50 [4]: Not Active

Compound: CC(=O)Nc1cccc(O)c1 [METACETAMOL]
- IC50 (Calcitonin receptor): Not Active
- IC50 [1]: Not Active
- Ki [1]: Not Active
- IC50 [2]: Not Active
- IC50 (D(3) dopamine receptor): Not Active
- IC50 ([3]; cho-k1): Not Active
- IC50 [4]: Not Active

Compound: NC(=O)c1cnccn1 [PYRAZINAMIDE]
- IC50 (Calcitonin receptor): Not Active
- IC50 [1]: Not Active
- Ki [1]: Not Active
- IC50 [2]: Not Active
- IC50 (D(3) dopamine receptor): Not Active
- IC50 ([3]; cho-k1): Not Active
- IC50 [4]: Not Active

Compound: CC[C@@H](CO)NCCN[C@@H](CC)CO [ETHAMBUTOL]
- IC50 (Calcitonin receptor): Not Active
- IC50 [1]: Not Active
- Ki [1]: Not Active
- IC50 [2]: Not Active
- IC50 (D(3) dopamine receptor): Not Active
- IC50 ([3]; cho-k1): Not Active
- IC50 [4]: Not Active

Compound: CC(C)(Oc1ccc(C2CCCc3ccccc32)cc1)C(=O)O (stereo not given) [NAFENOPIN]
- IC50 (Calcitonin receptor): Not Active
- IC50 [1]: Not Active
- Ki [1]: Not Active
- IC50 [2]: Not Active
- IC50 (D(3) dopamine receptor): Not Active
- IC50 ([3]; cho-k1): Not Active
- IC50 [4]: Not Active

Compound: C[C@@H]1C[C@@H]([C@H](O)CC2CC(=O)NC(=O)C2)C(=O)[C@@H](C)C1 [CYCLOHEXIMIDE]
- IC50 (Calcitonin receptor): Not Active
- IC50 [1]: Not Active
- Ki [1]: Not Active
- IC50 [2]: Not Active
- IC50 (D(3) dopamine receptor): Not Active
- IC50 ([3]; cho-k1): Not Active

Compound: CCn1cc(C(=O)O)c(=O)c2cc(F)c(N3CCN(C)CC3)cc21 [PEFLOXACIN]
- IC50 (Calcitonin receptor): Not Active
- IC50 [1]: Not Active
- Ki [1]: Not Active
- IC50 [2]: Not Active
- IC50 (D(3) dopamine receptor): Not Active
- IC50 ([3]; cho-k1): Not Active
- IC50 [4]: Not Active

Compound: CCN(CC)CCOC(=O)c1ccc(N)cc1 [PROCAINE]
- IC50 (Calcitonin receptor): Not Active
- IC50 [1]: Not Active
- Ki [1]: Not Active
- IC50 [2]: Not Active
- IC50 (D(3) dopamine receptor): Not Active
- IC50 ([3]; cho-k1): Not Active
- IC50 [4]: Not Active

Compound: CCCC(CCC)C(=O)O [VALPROIC ACID]
- IC50 (Calcitonin receptor): Not Active
- IC50 [1]: Not Active
- Ki [1]: Not Active
- IC50 [2]: Not Active
- IC50 (D(3) dopamine receptor): Not Active
- IC50 ([3]; cho-k1): Not Active
- IC50 [4]: Not Active

Compound: S=C=Nc1cccc2ccccc12 [1-NAPHTHYLISOTHIOCYANATE]
- IC50 (Calcitonin receptor): Not Active
- IC50 [1]: Not Active
- Ki [1]: Not Active
- IC50 [2]: Not Active
- IC50 (D(3) dopamine receptor): Not Active
- pIC50 [3]: 4.60
- pKi [3]: 4.80

Compound: COc1ccc2cc([C@H](C)C(=O)O)ccc2c1 [NAPROXEN]
- IC50 (Calcitonin receptor): Not Active
- IC50 [1]: Not Active
- Ki [1]: Not Active
- IC50 [2]: Not Active
- IC50 (D(3) dopamine receptor): Not Active
- IC50 ([3]; cho-k1): Not Active
- IC50 [4]: Not Active

Compound: Cc1ccccc1C(=O)N1CCC(Cc2ccccc2)CC1
- IC50 (Calcitonin receptor): Not Active
- IC50 [1]: Not Active
- Ki [1]: Not Active
- IC50 [2]: Not Active
- IC50 (D(3) dopamine receptor): Not Active
- pIC50 [3]: 5.73
- pKi [3]: 5.93
- IC50 [4]: Not Active
